pIC50: −log10 of the molar value.

The target in this assay is Human CARM1 (PRMT4) (Homo sapiens (Human), UniProt Q86X55). Nature of the assay: CARM1 enzyme assay on peptide substrate (3H-SAM Flashplate). The conditions noted are these: Biochemical potencies, classification codes; read-out: Biochem IC50.
Chain of Human CARM1 (PRMT4) (Q86X55 other isoform, or with tags, fused parts or gaps isoform Q86X55-1): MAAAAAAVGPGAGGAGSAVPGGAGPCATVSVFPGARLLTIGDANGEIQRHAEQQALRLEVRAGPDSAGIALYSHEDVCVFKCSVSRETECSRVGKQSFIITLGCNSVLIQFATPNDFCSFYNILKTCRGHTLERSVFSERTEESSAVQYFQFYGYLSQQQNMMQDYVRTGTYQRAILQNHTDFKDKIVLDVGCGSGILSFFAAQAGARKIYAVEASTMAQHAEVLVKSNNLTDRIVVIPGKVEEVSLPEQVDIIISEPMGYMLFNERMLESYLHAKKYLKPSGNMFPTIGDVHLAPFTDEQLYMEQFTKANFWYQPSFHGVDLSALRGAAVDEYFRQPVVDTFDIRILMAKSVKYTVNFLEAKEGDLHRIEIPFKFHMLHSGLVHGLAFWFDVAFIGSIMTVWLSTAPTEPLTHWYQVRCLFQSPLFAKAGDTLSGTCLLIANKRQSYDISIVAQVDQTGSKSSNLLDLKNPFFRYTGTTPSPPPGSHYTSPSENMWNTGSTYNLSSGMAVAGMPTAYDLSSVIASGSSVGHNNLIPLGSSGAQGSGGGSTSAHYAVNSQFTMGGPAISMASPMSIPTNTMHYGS
A word on the pIC50: it is the IC50 on a negative log10 scale, so that one unit is a factor of ten. For the compound `CNC[C@@H](O)COc1ccc(F)c(-c2nc(-c3c(C)noc3C)c(C)c(N3CC4(CCCCO4)C3)n2)c1` [Example 269-3], the pIC50 is > 7.00. For `CNC[C@@H](O)COc1ccc(F)c(-c2nc(-c3c(C)noc3C)c(C)c(N3Cc4cc(F)cnc4C3)n2)c1` [Example 164-3] the value was > 7.00.

Consider `CNCC(O)COc1cccc(-c2nc(-c3c(C)noc3C)c(C)c(N(C)C)n2)c1` (stereo not drawn) [Example 308-1a], for which the pIC50 was > 7.00.

Consider `CC[C@H]1CN(c2nc(-c3cccc(OCC(O)CNC)c3)nc(-c3c(C)noc3C)c2C)CCN1S(=O)(=O)CC` (stereo partly drawn) [Example 154-1a], for which the pIC50 was > 7.00. For `CNCC(O)COc1cccc(-c2nc(N(C)C3CCOCC3)c(C)c(N3CCNC[C@@H]3C)n2)c1` (stereo partly drawn) [Example 567-1a] the value was > 7.00. For `CNC[C@@H](O)COc1ccc(Cl)c(-c2nc(-c3c(C)noc3C)c(C)c(N3Cc4cnn(C5CC5)c4C3)n2)c1` [Example 270-3] the value was > 7.00.

Take `CNC[C@@H](O)COc1cccc(-c2nc(-c3cn(S(C)(=O)=O)c4ncncc34)c(C)c(N(C)C3CCOCC3)n2)c1` [Example 488-1a]: the pIC50 was > 7.00. Turning to `CNCC(O)COc1cccc(-c2nc(-c3cccc4ncccc34)cc(N(C)C3CCOCC3)n2)c1` (stereo not drawn) [Example 616-1a], the pIC50 is > 7.00.

Take `CNC[C@@H](O)COc1ccc(Cl)c(-c2nc(-c3c(C)noc3C)c(C)c(N3CC4(CCCCO4)C3)n2)c1` [Example 290-3]: the pIC50 is > 7.00. With `CNCC(O)COc1cccc(-c2nc(NC3CCOCC3)c(C)c(-c3c(C)noc3CO)n2)c1` (stereo not drawn) [Example 145-3], the pIC50 was > 7.00. For `CNCC(O)COc1cccc(-c2nc(-c3ccnc(C(C)(C)O)c3)cc(N(C)C3CCOCC3)n2)c1` (stereo not drawn) [Example 503-1a] the value was > 7.00. For `CNCC(O)COc1cccc(-c2cc(N(C)C3CCOCC3)nc(N3CCOCC3)n2)c1` (stereo not drawn) [Example 15-2] the value was > 7.00. Turning to `CNCC(O)COc1cccc(-c2nc(-c3cccc(C#N)c3)cc(N(C)C3CCOCC3)n2)c1` (stereo not drawn) [Example 622-1a], the pIC50 is > 7.00. For `CNCC(O)COc1cccc(-c2nc(-c3c(C)noc3C)c(C)c(N3CCNC(C(F)F)C3)n2)c1` (stereo not drawn) [Example 47-3] the value was > 7.00; for `CNCC(O)COc1cccc(-c2nc(NC3CCCC3)c(C)c(-c3c(C)noc3C)n2)c1` (stereo not drawn) [Example 241-1a], > 7.00.

In the case of `CNCC(O)COc1cccc(-c2nc(N3CCN(C)CC3)cc(N(C)C3CCOCC3)n2)c1` (stereo not drawn) [Example 531-1a], the pIC50 is > 7.00. `CNCC(O)COc1cc(Cl)cc(-c2nc(C(=O)NCC3CCOCC3)cc(N(C)C3CCOCC3)n2)c1` (stereo not drawn) [Example 508-1a]: the pIC50 is > 7.00. Next, `CNCC(O)COc1cccc(-c2nc(-c3c(C)noc3C)cc(N3CCC4(CC3)NC(=O)NC4=O)n2)c1` (stereo not drawn) [Example 42-1a]: > 7.00. For `CNCC(O)COc1cccc(-c2nc(-c3c(C)noc3C)c(C)c(N3CCN(Cc4ccccc4)C(C(F)F)C3)n2)c1` (stereo not drawn) [Example 235-1a] the value was > 7.00; for `CNC[C@@H](O)COc1ccc(Cl)c(-c2nc(N[C@@H]3CCN(C4CC4)C[C@@H]3F)c(C)c(-c3c(C)noc3C)n2)c1` [Example 167-3], > 7.00; for `CNCC(O)COc1cc(Cl)cc(-c2nc(-c3ccncc3)cc(N3CCOCC3)n2)c1` (stereo not drawn) [Example 632-1a], > 7.00.

Turning to `CNCC(O)COc1cccc(-c2nc(Nc3cnc(C)nc3)cc(-c3c(C)noc3C)n2)c1` (stereo not drawn) [Example 49-1a], the pIC50 is > 7.00. As for `CNCC(O)COc1cccc(-c2nc(-c3c(C)noc3C)c(C)c(N3CCC4(CC3)CN(S(C)(=O)=O)C4)n2)c1` (stereo not drawn) [Example 179-1a], the pIC50 is > 7.00. Next, `CNC[C@@H](O)COc1ccc(Cl)c(-c2nc(N[C@H]3CCN(C)C[C@H]3F)c(C)c(-c3c(C)noc3C)n2)c1` [Example 147-3]: > 7.00; `CC[C@H]1CN(c2nc(-c3cccc(OCC(O)CNC)c3)nc(-c3c(C)noc3C)c2C)CCN1S(C)(=O)=O` (stereo partly drawn) [Example 155-1a]: > 7.00. Next, `CNCC(O)COc1cccc(-c2nc(-c3c(C)noc3C)c(C)c(N3CCC4(CC3)CN(C3CC3)C4)n2)c1` (stereo not drawn) [Example 294-1a]: > 7.00; `CNC[C@@H](O)COc1ccc(Cl)c(-c2nc(-c3c(C)noc3C)c(C)c(C3CC3)n2)c1` [Example 205-3]: > 7.00; `CNC[C@@H](O)COc1ccc(Cl)c(-c2nc(-c3c(C)noc3C)c(C)c(N3Cc4cc(C)cnc4C3)n2)c1` [Example 296-3]: > 7.00. Turning to `Cc1noc(C)c1-c1cc(NC2CCOCC2)nc(-c2cccc(OC[C@@H](O)CN)c2)n1` [Example 15-1a], the negative-log IC50 (pIC50) is > 7.00. `CNC[C@@H](O)COc1ccc(Cl)c(-c2nc(N[C@@H]3C[C@@H](C)O[C@@H](C)C3)c(Cl)c(-c3c(C)noc3C)n2)c1` [Example 183-3]: the pIC50 was > 7.00. Next, `CNC[C@@H](O)COc1ccc(Cl)c(-c2nc(-c3c(C)noc3C)c(C)c(N3CC4(CCN(C5CC5)C4)C3)n2)c1` [Example 176-3]: > 7.00; `CNCC(O)COc1cccc(-c2nc(NC3CCN(C(=O)OC)C3)c(C)c(-c3c(C)noc3C)n2)c1` (stereo not drawn) [Example 186-1a]: > 7.00. For the compound `CNCC(O)COc1cccc(-c2nc(C(C)=O)c(C)c(N(C)C3CCOCC3)n2)c1` (stereo not drawn) [Example 544-1a], the pIC50 is > 7.00. Next, `CNCC(O)COc1cccc(-c2nc(N3CCN4C(=O)OC[C@@H]4C3)cc(N(C)C3CCOCC3)n2)c1` (stereo partly drawn) [Example 576-1a]: > 7.00; `CNCC(O)COc1cccc(-c2nc(-c3cn(C)cn3)cc(N(C)C3CCOCC3)n2)c1` (stereo not drawn) [Example 501-1a]: > 7.00; `CNCC(O)COc1cccc(-c2nc(-c3ccc(S(C)(=O)=O)cc3)cc(N(C)CCC#N)n2)c1` (stereo not drawn) [Example 56-1]: > 7.00. For the compound `CNCC(O)COc1cccc(-c2nc(NC3CN(C(=O)OC)C3)c(C)c(-c3c(C)noc3C)n2)c1` (stereo not drawn) [Example 275-1a], the pIC50 was > 7.00.

Turning to `CNCC(O)COc1cccc(-c2cc(N(C)C3CCOCC3)nc(N(C)C)n2)c1` (stereo not drawn) [Example 8-2], the pIC50 is > 7.00.

In the case of `CNC[C@@H](O)COc1ccc(Cl)c(-c2nc(-c3c(C)noc3C)c(C)c(N3CC(CO)(CO)C3)n2)c1` [Example 163-3], the pIC50 was > 7.00. `CNCC(O)COc1cccc(-c2nc(N[C@@H]3CCOC3)c(C)c(N3CCN(C(C)=O)C(C)(C)C3)n2)c1` (stereo partly drawn) [Example 439-1a]: the pIC50 was > 7.00. For `CNC[C@@H](O)COc1ccc(Cl)c(-c2nc(N[C@@H]3CCO[C@H](C)C3)c(Cl)c(-c3c(C)noc3C)n2)c1` [Example 155-3] the value was > 7.00; for `CNCC(O)COc1cc(Cl)cc(-c2nc(-c3ccn4cnnc4c3)c(C)c(N(C)C3CCOCC3)n2)c1` (stereo not drawn) [Example 70-1], > 7.00. For `CNCC(O)COc1cccc(-c2nc(N[C@@H]3COC(=O)C3)c(C)c(-c3c(C)noc3C)n2)c1` (stereo partly drawn) [Example 268-1a] the value was > 7.00; for `CNCC(O)COc1cccc(-c2nc(N[C@H]3C[C@@](C)(O)C3)c(C)c(-c3c(C)noc3C)n2)c1` (stereo partly drawn) [Example 255-1a], > 7.00; for `CNCC(O)COc1cccc(-c2nc(N[C@@H]3CCOC3)c(C)c(N3CCN(C)C(=O)C3)n2)c1` (stereo partly drawn) [Example 435-1a], > 7.00. For `CNCC(O)COc1ccc(Cl)c(-c2nc(N[C@H]3CCC[C@@H](O)C3)c(C)c(-c3c(C)noc3C)n2)c1` (stereo partly drawn) [Example 39-3] the value was > 7.00.

Turning to `CNCC(O)COc1cc(Cl)cc(-c2nc(N(C)C3CCOCC3)c(C)c(-n3cccn3)n2)c1` (stereo not drawn) [Example 618-1a], the pIC50 is > 7.00. On to `CNC[C@H](O)COc1ccc(F)c(-c2nc(N[C@H]3CCN(C(=O)OC)C[C@H]3F)c(C)c(-c3c(C)noc3C)n2)c1` [Example 63-3], for which the pIC50 was > 7.00. For `CNCC(O)COc1cccc(-c2nc(-c3c(C)noc3C)c(C)c(N3CC(NC(=O)OC)C3)n2)c1` (stereo not drawn) [Example 12-3] the value was > 7.00; for `CNC[C@@H](O)COc1ccc(Cl)c(-c2nc(-c3c(C)noc3C)c(C)c(N3Cc4nc(C)sc4C3)n2)c1` [Example 192-3], > 7.00; for `CNCC(O)COc1cccc(-c2nc(N[C@@H]3CCOC3)c(C)c(N3CCC(n4nc(C)cc4C)C3)n2)c1` (stereo partly drawn) [Example 468-1a], > 7.00. Next, `CNCC(O)COc1cccc(-c2nc(NC3CCOCC3)c(C)c(-c3c(C)noc3C3CC3)n2)c1` (stereo not drawn) [Example 236-1a]: > 7.00; `CNCC(O)COc1cccc(-c2nc(N3CCO[C@H](CN)C3)cc(N(C)C3CCOCC3)n2)c1` (stereo partly drawn) [Example 524-1a]: > 7.00. Next, `CNC[C@@H](O)COc1ccc(F)c(-c2nc(-c3c(C)noc3C)c(C)c(N3Cc4cccnc4C3)n2)c1` [Example 114-3]: > 7.00; `CNCC(O)COc1cccc(-c2nc(NC3CCCN(C(=O)OC)C3)c(C)c(-c3c(C)noc3C)n2)c1` (stereo not drawn) [Example 201-1a]: > 7.00; `CNC[C@@H](O)COc1cccc(-c2nc(N[C@@H]3CCN(C4CC4)C[C@@H]3F)c(Cl)c(-c3c(C)noc3C)n2)c1` [Example 68-3]: > 7.00. In the case of `CCOC(=O)N1CCN(c2cc(-c3c(C)noc3C)nc(-c3cccc(OCC(O)CNC)c3)n2)CC1` (stereo not drawn) [Example 28-1a], the negative logarithm of the IC50 (pIC50) was > 7.00. Turning to `CCS(=O)(=O)N1CCC(Nc2nc(-c3cccc(OCC(O)CNC)c3)nc(-c3c(C)nsc3C)c2C)CC1` (stereo not drawn) [Example 70-3], the pIC50 is > 7.00. `CCOC(=O)N1CCCCC1CNc1nc(-c2cc(OC[C@H](O)CNC)ccc2Cl)nc(-c2c(C)noc2C)c1C` (stereo partly drawn) [Example 28-3]: the pIC50 is > 7.00. For `CNC[C@H](O)COc1ccc(Cl)c(-c2nc(-c3c(C)noc3C)c(C)c(N3Cc4cn(C(C)C)nc4C3)n2)c1` [Example 272-1a] the value was > 7.00.

In the case of `CNC[C@@H](O)COc1ccc(Cl)c(-c2nc(-c3c(C)noc3C)c(C)c(N3CC(F)(F)C3)n2)c1` [Example 184-3], the pIC50 was > 7.00. For `CNCC(O)COc1cccc(-c2nc(-c3c(C)noc3C)cc(N3CCNC(C)(C)C3)n2)c1` (stereo not drawn) [Example 36-1a] the value was > 7.00; for `CNCC(O)COc1cccc(-c2nc(-c3c(C)noc3C)cc(N3CCN(S(C)(=O)=O)[C@H](C)C3)n2)c1` (stereo partly drawn) [Example 147-1a], > 7.00.

Values taken from US20230279020A9, “CARM1 INHIBITORS AND USES THEREOF” (Epizyme, Inc., priority 2013, published 2023).
